ChEMBL document CHEMBL1157811, “Synthesis, anticoagulant and PIVKA-II induced by new 4-hydroxycoumarin derivatives” (Bioorg Med Chem, 2010)
Calls of active or inactive are those of the source. The rule behind the calls is not given here.

What was measured:
Mus musculus [1] = assay: Ex vivo anticoagulant activity in albino mouse assessed as prothrombin time at 150 mg/kg, po administered daily for 3 successive days measured after 24 hrs of last dose; assay type: functional
Mus musculus [2] = assay: Ex vivo anticoagulant activity in albino mouse assessed as blood clotting time at 150 mg/kg, po administered daily for 3 successive days measured after 24 hrs of last dose; assay type: functional
HepG2 [3] = assay: Anticoagulant activity in human HepG2 cells assessed as accumulation of des-gamma carboxyprothrombin at 30 uM after 24 hrs by ELISA; assay type: functional, cell-based
HepG2 [4] = assay: Anticoagulant activity in human HepG2 cells assessed as accumulation of des-gamma carboxyprothrombin at 30 uM after 24 hrs by ELISA relative to warfarin; assay type: functional
HepG2 [5] = assay: Anticoagulant activity in human HepG2 cells assessed as accumulation of des-gamma carboxyprothrombin at 10 uM after 24 hrs by ELISA relative to warfarin; assay type: functional
[6] = Toxicity in po dosed albino mouse assessed as mortality administered daily for 3 successive days; assay type: organism-based; details: in vivo
HepG2 [7] = assay: Anticoagulant activity in human HepG2 cells assessed as accumulation of des-gamma carboxyprothrombin at 3.3 uM after 24 hrs by ELISA; assay type: functional, cell-based
HepG2 [8] = assay: Anticoagulant activity in human HepG2 cells assessed as accumulation of des-gamma carboxyprothrombin at 3.33 uM after 24 hrs by ELISA relative to warfarin; assay type: functional
HepG2 [9] = assay: Anticoagulant activity in human HepG2 cells assessed as accumulation of des-gamma carboxyprothrombin at 1.1 uM after 24 hrs by ELISA relative to warfarin; assay type: functional, cell-based
HepG2 [10] = assay: Anticoagulant activity in human HepG2 cells assessed as accumulation of des-gamma carboxyprothrombin after 24 hrs by ELISA; assay type: functional, cell-based

| SMILES | Time (Mus musculus [1]) [min] | Time (Mus musculus [2]) [s] | Activity (HepG2 [3]) | Activity (HepG2 [4]) [%] | Activity (HepG2 [5]) | also measured |
| --- | --- | --- | --- | --- | --- | --- |
| COc1cc(-c2cc(-c3c(O)c4ccccc4oc3=O)[nH]c(=O)c2C#N)cc(OC)c1OC | 0.192 | 15.67 | inactive |  |  |  |
| COc1cc(C2CC(c3c(O)c4ccccc4oc3=O)=NN2)cc(OC)c1OC (stereo not given) |  |  | inactive |  |  |  |
| O=c1oc2ccccc2c(O)c1C1=NN(C(=S)Nc2ccccc2)C(c2cccnc2)C1 (stereo not given) | 3.505 | 12.17 | Active | 19.4 | 19.3% |  |
| O=c1oc2ccccc2c(O)c1C1=NN(c2ccccc2)C(c2cccnc2)C1 (stereo not given) | 0.827 | 22.5 |  | 8.7 | 8.4% | LD50 at 3 days [6]: 1790 mg/kg |
| O=c1oc2ccccc2c(O)c1C1=NNC(c2cccnc2)C1 (stereo not given) | 0.53 | 17.67 | inactive |  |  |  |
| COc1cc(-c2cc(-c3c(O)c4ccccc4oc3=O)nc(N)c2C#N)cc(OC)c1OC | 0.193 | 9.5 |  |  |  |  |
| O=c1oc2ccccc2c(O)c1C1=NC(S)=NC(c2cccnc2)C1 (stereo not given) |  |  |  | 8 | inactive |  |
| COc1cc(C2CC(c3c(O)c4ccccc4oc3=O)=NN2c2ccccc2)cc(OC)c1OC (stereo not given) |  |  |  |  |  | Activity (HepG2 [7]): inactive |
| N#Cc1c(-c2cccnc2)cc(-c2c(O)c3ccccc3oc2=O)[nH]c1=O |  |  |  |  | 10% | Activity (HepG2 [8]): inactive |
| N#Cc1c(-c2ccco2)cc(-c2c(O)c3ccccc3oc2=O)[nH]c1=O |  |  |  | 8.8 | 10% |  |
| CC(=O)N1N=C(c2c(O)c3ccccc3oc2=O)CC1c1cccnc1 (stereo not given) | 3.373 | 20.83 |  |  |  | Activity (HepG2 [8]): 11.45%; Activity (HepG2 [9]): inactive |
| CC(=O)CC(c1ccccc1)c1c(O)c2ccccc2oc1=O (stereo not given) [WARFARIN] | 4.445 | 18.17 |  |  |  | Activity (HepG2 [10]): Dose-dependent effect; LD50 at 3 days [6]: 760 mg/kg |
| COc1ccc(C2CC(c3c(O)c4ccccc4oc3=O)=NN2)cc1 (stereo not given) |  |  | Active | 17.3 | 17.76% |  |
| COc1cc(C2CC(c3c(O)c4ccccc4oc3=O)=NC(S)=N2)cc(OC)c1OC (stereo not given) | 0.173 | 15.83 | Active | 13 | 5.2% |  |
| NC(=S)N1N=C(c2c(O)c3ccccc3oc2=O)CC1c1cccnc1 (stereo not given) | 4.017 | 16.67 | Active | 11.2 | 9.1% |  |
| COc1ccc(C2CC(c3c(O)c4ccccc4oc3=O)=NN2C(=S)Nc2ccccc2)cc1 (stereo not given) |  |  | inactive |  |  |  |
| COc1ccc(C2CC(c3c(O)c4ccccc4oc3=O)=NN2C(N)=S)cc1 (stereo not given) |  |  | Active | 18.1 | 13.7% |  |
| N#Cc1c(-c2ccco2)cc(-c2c(O)c3ccccc3oc2=O)nc1N |  |  | Active | 10 | 7.4% |  |
| COc1cc(C2CC(c3c(O)c4ccccc4oc3=O)=NN2C(=S)Nc2ccccc2)cc(OC)c1OC (stereo not given) |  |  |  |  |  | Activity (HepG2 [7]): inactive |
